Measured values from US20160159814A1, “GLYCINE TRANSPORTER INHIBITOR” (TAISHO PHARMACEUTICAL CO., LTD., priority 2013, published 2016).
Read-outs that look alike come from different tables or passages of the source.

Target: T1, human type 1 glycine transporter (GlyT1) (Homo sapiens, UniProt P48067)
T1 construct: T98G cells (glioma cells) expressing human type 1 glycine transporter (GlyT1) were used; endogenous in cells; host or cells: T98G cells (human glioma cells)
T1 sequence (P48067 1-706): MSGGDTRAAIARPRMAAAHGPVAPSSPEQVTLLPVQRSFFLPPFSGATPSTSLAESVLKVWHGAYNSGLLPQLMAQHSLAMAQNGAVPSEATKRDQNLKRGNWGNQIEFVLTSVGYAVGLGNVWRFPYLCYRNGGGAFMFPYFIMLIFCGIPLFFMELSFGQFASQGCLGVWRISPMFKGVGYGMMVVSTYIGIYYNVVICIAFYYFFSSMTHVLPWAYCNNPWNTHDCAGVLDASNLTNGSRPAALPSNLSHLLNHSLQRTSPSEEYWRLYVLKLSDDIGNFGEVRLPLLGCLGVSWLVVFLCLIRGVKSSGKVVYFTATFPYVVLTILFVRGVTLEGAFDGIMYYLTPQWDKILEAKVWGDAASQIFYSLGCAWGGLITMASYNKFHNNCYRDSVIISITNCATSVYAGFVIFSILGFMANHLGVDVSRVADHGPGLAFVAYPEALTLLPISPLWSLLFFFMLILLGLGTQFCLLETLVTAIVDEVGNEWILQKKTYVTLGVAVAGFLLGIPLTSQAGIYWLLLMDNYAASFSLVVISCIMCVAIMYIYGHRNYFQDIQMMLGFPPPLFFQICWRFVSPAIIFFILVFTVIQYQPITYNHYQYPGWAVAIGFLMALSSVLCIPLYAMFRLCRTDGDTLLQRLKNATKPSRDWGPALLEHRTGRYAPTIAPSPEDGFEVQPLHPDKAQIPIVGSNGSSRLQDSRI
Assay: Glycine uptake inhibition experiment ([3H] glycine uptake in T98G cells expressing GlyT1)
Format: cell-based
Outline: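 T98G glioma cells expressing human GlyT1 were pretreated 10 min with compound in HEPES buffer pH 7.4 (0.2% BSA), then incubated with compound plus 250 nM final [3H]glycine for 15 min at room temperature. Intracellular radioactivity was counted after NaOH lysis; 10 μM ALX5407 defined non-specific uptake. IC50 came from 10^−9–10^−5 M curves.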

Row | Compound | IC50 (glycine uptake inhibition) [nM] | IC50 [nM]
1 | C[C@H](O)c1cccc2c1C(F)(F)C(=O)N2Cc1nc2ccccc2s1 [Compound 73, 1-(1,3-benzothiazol-2-ylmethyl)-3,3-difluoro-4-[(1S)-1-hydroxyethyl]-1,3-dihydro-2H-indol-2-one] | 37 | 
2 | C[C@H](O)c1cccc2c1C(F)(F)C(=O)N2Cc1ccc(F)c(Cl)n1 [Compound 237, 1-[(6-chloro-5-fluoropyridin-2-yl)methyl]-3,3-difluoro-4-[(1S)-1-hydroxyethyl]-1,3-dihydro-2H-indol-2-one] |  | 2.9
3 | O=C1N(Cc2cccc(Cl)n2)c2cccc(C(O)C(F)(F)F)c2C1(F)F (single isomer, unassigned) [Compound 8, 1-[(6-chloropyridin-2-yl)methyl]-3,3-difluoro-4-(2,2,2-trifluoro-1-hydroxyethyl)-1,3-dihydro-2H-indol-2-one] | 800 | 
4 | O=C1N(Cc2cccc(Cl)n2)c2cccc(C(O)C(F)(F)F)c2C1(F)F (single isomer, unassigned) [Compound 9, 1-[(6-chloropyridin-2-yl)methyl]-3,3-difluoro-4-(2,2,2-trifluoro-1-hydroxyethyl)-1,3-dihydro-2H-indol-2-one] | 17 | 
5 | C[C@H](O)c1cccc2c1C(F)(F)C(=O)N2Cc1noc2ccccc12 [Compound 119, 1-(1,2-benzoxazol-3-ylmethyl)-3,3-difluoro-4-[(1S)-1-hydroxyethyl]-1,3-dihydro-2H-indol-2-one] | 77 | 
6 | COc1nc(CN2C(=O)C(F)(F)c3c([C@H](C)O)cccc32)ccc1Cl [Compound 249, 1-[(5-chloro-6-methoxypyridin-2-yl)methyl]-3,3-difluoro-4-[(1S)-1-hydroxyethyl]-1,3-dihydro-2H-indol-2-one] |  | 58
7 | C[C@H](O)c1cccc2c1C(F)(F)C(=O)N2Cc1cncc(C2CC2)c1 [Compound 174, 1-[(5-cyclopropylpyridin-3-yl)methyl]-3,3-difluoro-4-[(1S)-1-hydroxyethyl]-1,3-dihydro-2H-indol-2-one] |  | 95
8 | C[C@H](O)c1cccc2c1C(F)(F)C(=O)N2Cc1ccc(Cl)nn1 [Compound 204, 1-[(6-chloropyridazin-3-yl)methyl]-3,3-difluoro-4-[(1S)-1-hydroxyethyl]-1,3-dihydro-2H-indol-2-one] |  | 110
9 | C[C@H](O)c1cccc2c1C(F)(F)C(=O)N2Cc1nc2ccccc2c(=O)n1C [Compound 41, 2-({3,3-difluoro-4-[(1S)-1-hydroxyethyl]-2-oxo-2,3-dihydro-1H-indol-1-yl}methyl)-3-methylquinazolin-4(3H)-one] | 29 | 
10 | O=C1N(Cc2cc(Cl)ccn2)c2cccc([C@@H](O)C(F)(F)F)c2C1(F)F [Compound 145, 1-[(4-chloropyndin-2-yl)methyl]-3,3-difluoro-4-[(1R)-2,2,2-trifluoro-1-hydroxyethyl]-1,3-dihydro-2H-indol-2-one] | 43 | 
11 | C[C@H](O)c1cccc2c1C(F)(F)C(=O)N2Cc1ncc(Cl)cc1C#N [Compound 242] |  | 83
12 | COc1cc(Cl)ncc1CN1C(=O)C(F)(F)c2c([C@H](C)O)cccc21 [Compound 231, 1-[(6-chloro-4-methoxypyridin-3-yl)methyl]-3,3-difluoro-4-[(1S)-1-hydroxyethyl]-1,3-dihydro-2H-indol-2-one] |  | 140
13 | C[C@H](O)c1ccc(F)c2c1C(F)(F)C(=O)N2Cc1ccnc(C#N)c1 [Compound 277, 4-({3,3,7-trifluoro-4-[(1S)-1-hydroxyethyl]-2-oxo-2,3-dihydro-1H-indol-1-yl}methyl)pyridine-2-carbonitrile] |  | 14
14 | C[C@H](O)c1cccc2c1C(F)(F)C(=O)N2Cc1ccc(C(F)(F)F)o1 [Compound 94, 3,3-difluoro-4-[(1S)-1-hydroxyethyl]-1-{[5-(trifluoromethyl)furan-2-yl]methyl}-1,3-dihydro-2H-indol-2-one] | 6 | 
15 | C[C@H](O)c1cccc2c1C(F)(F)C(=O)N2Cc1cc(F)ccn1 [Compound 97, 3,3-difluoro-1-[(4-fluoropyridin-2-yl)methyl]-4-[(1S)-1-hydroxyethyl]-1,3-dihydro-2H-indol-2-one] | 91 | 
16 | COc1cc(CN2C(=O)C(F)(F)c3c([C@@H](O)C(F)(F)F)cccc32)ccn1 [Compound 166, 3,3-difluoro-1-[(2-methoxypyridin-4-yl)methyl]-4-[(1R)-2,2,2-trifluoro-1-hydroxyethyl]-1,3-dihydro-2H-indol-2-one] |  | 26
17 | O=C1N(Cc2nc3ccccc3[nH]c2=O)c2cccc([C@@H](O)C(F)(F)F)c2C1(F)F [Compound 140, 3-({3,3-difluoro-2-oxo-4-[(1R)-2,2,2-trifluoro-1-hydroxyethyl]-2,3-dihydro-1H-indol-1-yl}methyl) quinoxalin-2(1H)-one] | 33 | 

Now from value to molecule:

Row | IC50 (glycine uptake inhibition) [nM] | IC50 [nM] | Compound
18 | 160 |  | COc1cncc(CN2C(=O)C(F)(F)c3c([C@H](C)O)cccc32)c1 [Compound 71, 3,3-difluoro-4-[(1S)-1-hydroxyethyl]-1-[(5-methoxypyridin-3-yl)methyl]-1,3-dihydro-2H-indol-2-one]
19 |  | 9.1 | N#Cc1nc(CN2C(=O)C(F)(F)c3c(C(O)C(F)F)cccc32)ccc1F (single isomer, unassigned) [Compound 275, 6-{[4-(2,2-difluoro-1-hydroxyethyl)-3,3-difluoro-2-oxo-2,3-dihydro-1H-indol-1-yl]methyl}-3-fluoropyridine-2-carbonitrile]
20 | 57 |  | O=C1N(Cc2cncc(Cl)c2)c2ccc(F)c(C(O)C(F)F)c2C1(F)F (single isomer, unassigned) [Compound 135, 1-[(5-chloropyridin-3-yl)methyl]-4-(2,2-difluoro-1-hydroxyethyl)-3,3,5-trifluoro-1,3-dihydro-2H-indol-2-one]
21 | 1700 |  | O=C1N(Cc2cncc(Cl)c2)c2ccc(F)c(C(O)C(F)F)c2C1(F)F (single isomer, unassigned) [Compound 136]
22 |  | 79 | C[C@H](O)c1cccc2c1C(F)(F)C(=O)N2Cc1cncc(OC(F)F)c1 [Compound 189, 1-{[5-(difluoromethoxy)pyridin-3-yl]methyl}-3,3-difluoro-4[(1S)-1-hydroxyethyl)-1,3-dihydro-2H-indol-2-one]
23 |  | 6.7 | CC(O)c1c(F)ccc2c1C(F)(F)C(=O)N2Cc1cncc(Cl)c1 (single isomer, unassigned) [Compound 183, 1-[(5-chloropyridin-3-yl)methyl]-3,3,5-trifluoro-4-(1-hydroxyethyl)-1,3-dihydro-2H-indol-2-one]
24 | 88 |  | N#Cc1cc(CN2C(=O)C(F)(F)c3c(C(O)C(F)F)cccc32)ccn1 (single isomer, unassigned) [Compound 109, 4-{[4-(2,2-difluoro-1-hydroxyethyl]-3,3-difluoro-2-oxo-2,3-dihydro-1H-indol-1-yl]methyl}pyridine-2-carbonitrile]
25 | 13 |  | O=C1N(Cc2ccnc(Cl)c2)c2cccc(C(O)C(F)F)c2C1(F)F (single isomer, unassigned) [Compound 36, 1-[(2-chloropyridin-4-yl)methyl]-4-(2,2-difluoro-1-hydroxyethyl)-3,3-difluoro-1,3-dihydro-2H-indol-2-one]
26 |  | 210 | CCOc1ccc(CN2C(=O)C(F)(F)c3c(C(O)C(F)F)cccc32)cn1 (single isomer, unassigned) [Compound 278, 4-(2,2-difluoro-1-hydroxyethyl)-1-[(6-ethoxypyridin-3-yl)methyl]-3,3-difluoro-1,3-dehydro-2H-indol-2-one]
